Results as given in patent US20100173835A1, “Peptides for Treatment of Obesity” (Novo Nordisk A/S, priority 2008, published 2010).
Converted amounts (≈) assume the structure as drawn. Read-outs that look alike come from different tables or passages of the source. Each block holds one molecule with its values, some of them ahead of it. *1 amine or outer side, *2 acyl side, *3 side chain or, on linkers, in order; H or OH if unused. Where a SMILES comes first, the peptide text is derived from it. Bridges are numbered along the chain shown (N, C = ends). [ ]: non-standard residue; d: D form. The star is where a group is joined. Palmitoyl(16-(5-tetrazolyl)) = O=C(CCCCCCCCCCCCCCCc1nnn[nH]1)*; Lys(CH2CO2H)2 = N[C@@H](CCCCN(CC(=O)O)CC(=O)O)C(=O)O; C18 diacid = O=C(O)CCCCCCCCCCCCCCCCC(=O)*; γGlu = O=C(O)[C@H](CCC(=O)[*:2])N[*:1]; Hyp = O=C(O)[C@@H]1C[C@@H](O)CN1; NTA = O=C(O)CN(CC(=O)O)CC(=O)*; Nle = CCCC[C@H](N)C(=O)O; Orn = NCCC[C@H](N)C(=O)O; Dap = NC[C@H](N)C(=O)O; AEEA = NCCOCCOCC(=O)O

Tests used:
MC1 receptor = molecular target: T1, MC1 receptor (Homo sapiens, UniProt Q01726); assay: Assay (IV) Melanocortin Receptor 1 (MC1) binding assay
T1 construct: expressed in transfected cells
T1 sequence (Q01726 whole entry): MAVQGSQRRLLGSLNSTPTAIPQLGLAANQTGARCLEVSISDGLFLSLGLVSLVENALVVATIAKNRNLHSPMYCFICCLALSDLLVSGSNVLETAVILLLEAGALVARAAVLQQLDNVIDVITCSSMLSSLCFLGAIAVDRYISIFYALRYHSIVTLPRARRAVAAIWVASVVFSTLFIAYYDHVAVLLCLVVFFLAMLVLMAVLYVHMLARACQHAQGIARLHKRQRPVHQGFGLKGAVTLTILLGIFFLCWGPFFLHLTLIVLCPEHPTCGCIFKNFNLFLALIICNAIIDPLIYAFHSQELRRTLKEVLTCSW
Experimental: Assay (IV)—Melanocortin Receptor 1 (MC1) Binding Assay
The MC1 receptor binding assay is performed on BHK cell membranes stably expressing the MC1 receptor. The assay is performed in a total volume of 250 NI: 25 μl of ^125NDP-α-MSH (22 pM in final concentration), 25 μl of test compound/control and 200 μl of cell membrane (25 μg/ml). Test compounds are dissolved in DMSO. Radioactively labeled ligand, membranes and test compounds are diluted in buffer: 25 mM HEPES, pH 7.4, 0.1 mM CaCl2, 1 mM MgSO4, 1 mM EDTA, 0.1% HSA and 0.005% Tween™ 20. Alternatively, HSA may be substituted with ovalbumin. The samples are incubated at 30° C. for 90 min. in Costar round-bottom microtiter plates. Incubation is terminated by filtration on a Packard harvester filtermate. Rapid filtration through Packard Unifilter-96 GF/B filters pre-treated with polyethylenimine (PerkinElmer 6005277). The filters are washed with ice-cold 0.9% NaCl 8-10 times. The plates is air dried at app. 55° C. for 30 min, and 50 μl Microscint 0 (Packard, cat. No. 6013616) is added to each well. The plates are counted in a Topcounter (1 min/well).
(§1) The data are analysed by non-linear regression analysis of binding curves, using the Windows™ program GraphPad™ Prism (GraphPad Software, USA).

human MC4 receptor = molecular target: T2, human MC4 receptor (Homo sapiens, UniProt P32245); assay: Assay (V) Melanocortin Receptor 4 (MC4) binding assay; conditions: 125NDP-α-MSH binding, BHK cell membranes
T2 construct: expressed in transfected cells
T2 sequence (P32245 whole entry): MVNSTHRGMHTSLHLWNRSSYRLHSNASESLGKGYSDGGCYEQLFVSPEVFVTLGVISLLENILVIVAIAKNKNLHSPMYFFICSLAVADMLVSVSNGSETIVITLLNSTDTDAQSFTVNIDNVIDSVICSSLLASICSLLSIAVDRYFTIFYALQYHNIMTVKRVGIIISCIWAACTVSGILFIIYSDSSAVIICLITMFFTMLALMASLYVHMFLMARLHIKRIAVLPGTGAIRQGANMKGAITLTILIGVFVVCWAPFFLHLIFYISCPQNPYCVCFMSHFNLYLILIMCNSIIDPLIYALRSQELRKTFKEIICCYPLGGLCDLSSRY
Experimental: Assay (V)—Melanocortin Receptor 4 (MC4) Binding Assay
In vitro ^125NDP-α-MSH binding to recombinant BHK cells expressing human MC4 receptor (filtration assay).
The assay is performed in 5 ml minisorb vials (Sarstedt No. 55.526) or in 96-well filterplates (Millipore MADVN 6550), and using BHK cells expressing the human MC4 receptor using BHK cells stably expressing the human MC4 receptor. The membranes were prepared from frozen or fresh cells that were homogenized in 20 mM HEPES pH 7.1, 5 mM MgCl2 and 1 mg/ml bacitracin and centrifuged at 15000 rpm at 4° C., 10 min in a Sorvall RC 5B plus, SS-34 rotor. The supernatant was discarded, and the pellets were re-suspended in buffer, homogenized and centrifuged two more times. The final pellets were resuspended in the buffer mentioned above, and the protein concentration was measured and adjusted with buffer to 14 to 17 mg/ml and the membrane preparation were kept at −80° C. until assay. The assay was run directly on a dilution of this cell membrane suspension, without any further preparation. The BHK cell membranes are kept at −80° C. until assay, and the assay is run directly on a dilution of this cell membrane suspension, without further preparation. The suspension is diluted to give maximally 10% specific binding, i.e. to approx. 50-100 fold dilution. The assay is performed in a total volume of 200 μl: 50 μl of cell suspension, 50 μl of ^125NDP-α-MSH (≈79 pM in final concentration), 50 μl of test compound and 50 μl binding buffer (pH 7) mixed and incubated for 2 h at 25° C. [binding buffer: 25 mM HEPES, pH 7.0, 1 mM CaCl2, 1 mM MgSO4, 1 mM EGTA, 0.02% Bacitracin, 0.005% Tween™ 20 and 0.1% HSA or, alternatively, 0.1% ovalbumin (Sigma; catalogue No. A-5503)]. Test compounds are dissolved in DMSO and diluted in binding buffer. Radiolabelled ligand and membranes are diluted in binding buffer. The incubation is stopped by dilution with 2×100 μl ice-cold 0.9% NaCl. The radioactivity retained on the filters is counted using a Cobra II auto gamma counter.
as §1

[1] = Solubility data of compounds in water over the pH range; format: physicochemical

SMILES: CCCC[C@H](NC(=O)[C@H](CCCNC(=O)CN(CC(=O)O)CC(=O)O)NC(=O)[C@H](Cc1c[nH]cn1)NC(=O)[C@H](CCC(N)=O)NC(=O)[C@H](CO)NC(=O)CNC(=O)COCCOCCNC(=O)CCCCCCCCCCCCCCCc1nnn[nH]1)C(=O)N[C@H]1CCC(=O)NCCCC[C@@H](C(N)=O)NC(=O)[C@H](Cc2c[nH]c3ccccc23)NC(=O)[C@H](CCCNC(=N)N)NC(=O)[C@@H](Cc2ccccc2)NC(=O)[C@@H]2C[C@@H](O)CN2C1=O [Example 8, (2-{2-[16-(Tetrazol-5-yl)hexadecanoylamino]ethoxy}ethoxy)acetyl-Gly-Ser-Gln-His-Orn(BCMA)-Nle-c[Glu-Hyp-D-Phe-Arg-Trp-Lys]-NH2] ({Palmitoyl(16-(5-tetrazolyl))-AEEA}-GSQH[Orn](NTA)[Nle]E[Hyp][dF]RWK-NH2; lactam 7-12)
Ki (MC1 receptor): > 10000 nM
Ki (human MC4 receptor; Assay (V) MC4 [Ki] (nM)): 0.9 nM
solubility at 3 days ([1]; pH 2.96, pH 2.96, read-out: Conc (solubility in water)): 716 µM (≈ 1520 µg/mL)
solubility at 3 days ([1]; pH 4.1, pH 4.1, read-out: Conc (solubility in water)): 536 µM (≈ 1140 µg/mL)
solubility at 3 days ([1]; pH 4.24, pH 4.24, read-out: Conc (solubility in water)): 389 µM (≈ 825 µg/mL)
solubility at 3 days ([1]; pH 4.87, pH 4.87, read-out: Conc (solubility in water)): 34 µM (≈ 72.1 µg/mL)
solubility at 3 days ([1]; pH 5.9, pH 5.9, read-out: Conc (solubility in water)): 10 µM (≈ 21.2 µg/mL)
solubility at 3 days ([1]; pH 6.7, pH 6.7, read-out: Conc (solubility in water)): 26 µM (≈ 55.1 µg/mL)
solubility at 3 days ([1]; pH 7.45, pH 7.45, read-out: Conc (solubility in water)): 271 µM (≈ 575 µg/mL)
solubility at 3 days ([1]; pH 7.47, pH 7.47, read-out: Conc (solubility in water)): 116 µM (≈ 246 µg/mL)
solubility at 3 days ([1]; pH 7.75, pH 7.75, read-out: Conc (solubility in water)): 280 µM (≈ 594 µg/mL)
solubility at 3 days ([1]; pH 7.95, pH 7.95, read-out: Conc (solubility in water)): 546 µM (≈ 1160 µg/mL)

SMILES: CCCC[C@H](NC(=O)[C@H](CCCCN(CC(=O)O)CC(=O)O)NC(=O)[C@H](Cc1c[nH]cn1)NC(=O)[C@H](CCC(N)=O)NC(=O)[C@H](CO)NC(=O)CNC(=O)COCCOCCNC(=O)CCCCCCCCCCCCCCCc1nnn[nH]1)C(=O)N[C@H]1CCC(=O)NCCCC[C@@H](C(N)=O)NC(=O)[C@H](Cc2c[nH]c3ccccc23)NC(=O)[C@H](CCCNC(=N)N)NC(=O)[C@@H](Cc2ccccc2)NC(=O)[C@@H]2C[C@@H](O)CN2C1=O [Example 7, (2-{2-[16-(Tetrazol-5-yl)hexadecanoylamino]ethoxy}ethoxy)acetyl-Gly-Ser-Gln-His-Lys(biscarboxymethyl)-Nle-c[Glu-Hyp-D-Phe-Arg-Trp-Lys]-NH2] ({Palmitoyl(16-(5-tetrazolyl))-AEEA}-GSQH[Lys(CH2CO2H)2][Nle]E[Hyp][dF]RWK-NH2; lactam 7-12)
Ki (MC1 receptor): 8710 nM
Ki (human MC4 receptor; Assay (V) MC4 [Ki] (nM)): 1.6 nM
solubility at 3 days ([1]; pH 2.94, pH 2.94, read-out: Conc (solubility in water)): 536 µM (≈ 1110 µg/mL)
solubility at 3 days ([1]; pH 3.28, pH 3.28, read-out: Conc (solubility in water)): 476 µM (≈ 989 µg/mL)
solubility at 3 days ([1]; pH 3.59, pH 3.59, read-out: Conc (solubility in water)): 398 µM (≈ 827 µg/mL)
solubility at 3 days ([1]; pH 3.95, pH 3.95, read-out: Conc (solubility in water)): 276 µM (≈ 573 µg/mL)
solubility at 3 days ([1]; pH 4.75, pH 4.75, read-out: Conc (solubility in water)): 42 µM (≈ 87.3 µg/mL)
solubility at 3 days ([1]; pH 5.64, pH 5.64, read-out: Conc (solubility in water)): 19 µM (≈ 39.5 µg/mL)
solubility at 3 days ([1]; pH 6.48, pH 6.48, read-out: Conc (solubility in water)): 18 µM (≈ 37.4 µg/mL)
solubility at 3 days ([1]; pH 6.98, pH 6.98, read-out: Conc (solubility in water)): 35 µM (≈ 72.7 µg/mL)
solubility at 3 days ([1]; pH 7.48, pH 7.48, read-out: Conc (solubility in water)): 262 µM (≈ 544 µg/mL)
solubility at 3 days ([1]; pH 7.78, pH 7.78, read-out: Conc (solubility in water)): 391 µM (≈ 812 µg/mL)

Ki (MC1 receptor; 125NDP-α-MSH binding, BHK cell membranes, read-out: Assay (IV) MC1 Ki): > 10000 nM
Ki (human MC4 receptor; read-out: Assay (V) MC4 [Ki]): 5.35 nM
solubility at 3 days ([1]; pH 3.7): 391 µM (≈ 921 µg/mL)
solubility at 3 days ([1]; pH 5.2): 25 µM (≈ 58.9 µg/mL)
solubility at 3 days ([1]; pH 5.96): 78 µM (≈ 184 µg/mL)
solubility at 3 days ([1]; pH 6.56): 249 µM (≈ 587 µg/mL)
solubility at 3 days ([1]; pH 6.73): 342 µM (≈ 806 µg/mL)
solubility at 3 days ([1]; pH 6.95): 382 µM (≈ 900 µg/mL)
solubility at 3 days ([1]; pH 7.07): 485 µM (≈ 1140 µg/mL)
solubility at 3 days ([1]; pH 7.51): 498 µM (≈ 1170 µg/mL)
SMILES: CCCC[C@H](NC(=O)[C@H](CNC(=O)CN(CC(=O)O)CC(=O)O)NC(=O)[C@H](Cc1c[nH]cn1)NC(=O)[C@H](CCC(N)=O)NC(=O)[C@H](CO)NC(=O)CNC(=O)COCCOCCNC(=O)COCCOCCNC(=O)CC[C@H](NC(=O)CCCCCCCCCCCCCCCCC(=O)O)C(=O)O)C(=O)N[C@H]1CCC(=O)NCCCC[C@@H](C(N)=O)NC(=O)[C@H](Cc2c[nH]c3ccccc23)NC(=O)[C@H](CCCNC(=N)N)NC(=O)[C@@H](Cc2ccccc2)NC(=O)[C@@H]2C[C@@H](O)CN2C1=O [Example 18, (2-{2-[2-(2-{2-[(S)-4-Carboxy-4-(17-carboxyheptadecanoylamino)butanoylamino]ethoxy}ethoxy)acetylamino]ethoxy}ethoxy)acetyl-Gly-Ser-Gln-His-Dap(BCMA)-Nle-c[Glu-Hyp-D-Phe-Arg-Trp-Lys]-NH2] ({C18 diacid-γGlu-AEEA-AEEA}-GSQH[Dap](NTA)[Nle]E[Hyp][dF]RWK-NH2; lactam 7-12)
